From patent US7198811B2, “Compositions for the preservation of fruits and vegetables” (University of Guelph, priority 2002, dated 2007)

System: Cortland apples
Assay: Superficial scald and softening in Cortland apples versus duration of dip treatment
Type: in vivo
Details: 1 minute, 1500 ppm; CA storage 9 months
Experimental: The effects of antioxidant formulation of the present invention, and subgroups of its chemical components on post harvest qualities of Cortland apples were investigated.
The effect of the duration of dip treatment of Cortland apples using the antioxidant formulation (Example 1, Solution B) is presented in Table 3C. Ten ml of the formulation of was diluted to a liter. […] Twenty randomly selected apples from each of the treatments were removed and kept at room temperature for a week before evaluations were conducted.
Ten ml of the concentrate of the EAM formulation was diluted to one liter to form the final solution. […] Two bushels of apples were dipped in 40 liters of solution for each time period and subjected to controlled atmosphere storage as defined above. Apples were brought out after 9 months of storage. Twenty apples from each treatment were picked randomly from two independent sets, and left at room temperature for one week before evaluating for scald and softening.
Ten ml of the concentrate of the AOX formulation was diluted to one liter to form the final solution. […] Two bushels of apples were dipped in 40 liters of solution for each time period and subjected to controlled atmosphere storage as defined above. Apples were brought out after 9 months of storage. […]

Work on `c1ccc(Nc2ccccc2)cc1` [DPA, diphenylamine] yielded a Softening % of 25%.

Molecule `c1ccc(Nc2ccccc2)cc1` [DPA, diphenylamine] has a Superficial scald % of 35%.

System: Vista Cherries
Assay: Postharvest dips of compositions or individual components on Vista cherries; further: dipped 2.5 min
Type: in vivo
Details: dipped […], concentration as printed per treatment; stored 4° C. in air
Experimental: Samples were allowed to dry at room temperature and stored at 4° C. in air. Evaluations were conducted two weeks and four weeks after treatment. The results given are mean of twenty sample values.

Point of comparison: `CCCCCC=O` [Hexanal], “Firmness (kg) 2 weeks” value 1.24 kg. Against it:
- [Ca+2].[Cl-].[Cl-] [CaCl2, calcium chloride] — higher, 1.26 kg
- CC(=O)OC/C=C(\C)CCC=C(C)C [Geranyl Acetate] — lower, 1.21 kg
- c1ccc(CNc2ncnc3nc[nH]c23)cc1 [BA, benzyladenine] — the same, 1.24 kg
- O=C1O[C@H]([C@@H](O)CO)C(O)=C1O [Ascorbic Acid] — lower, 1.2 kg
- CC(C)=CCC/C(C)=C/CO [Geraniol] — lower, 1.01 kg
- Cc1c(C)c2c(c(C)c1O)CC[C@@](C)(CCC[C@H](C)CCC[C@H](C)CCCC(C)C)O2 [α-tocopherol] — lower, 1.21 kg

Point of comparison: `CC(=O)OC/C=C(\C)CCC=C(C)C` [Geranyl Acetate], “Firmness (kg) 4 weeks” value 1.12 kg. Against it:
- [Ca+2].[Cl-].[Cl-] [CaCl2, calcium chloride] — lower, 1.09 kg
- c1ccc(CNc2ncnc3nc[nH]c23)cc1 [BA, benzyladenine] — higher, 1.14 kg
- CCCCCC=O [Hexanal] — higher, 1.16 kg
- O=C1O[C@H]([C@@H](O)CO)C(O)=C1O [Ascorbic Acid] — the same, 1.12 kg
- CC(C)=CCC/C(C)=C/CO [Geraniol] — higher, 1.24 kg
- Cc1c(C)c2c(c(C)c1O)CC[C@@](C)(CCC[C@H](C)CCC[C@H](C)CCCC(C)C)O2 [α-tocopherol] — the same, 1.12 kg

Point of comparison: `c1ccc(CNc2ncnc3nc[nH]c23)cc1` [BA, benzyladenine], “Soluble Solids (%) 2 weeks” value 13.8%. Against it:
- CC(=O)OC/C=C(\C)CCC=C(C)C [Geranyl Acetate] — higher, 17%

Point of comparison: `CC(C)=CCC/C(C)=C/CO` [Geraniol], “Soluble Solids (%) 4 weeks” value 17%. Against it:
- Cc1c(C)c2c(c(C)c1O)CC[C@@](C)(CCC[C@H](C)CCC[C@H](C)CCCC(C)C)O2 [α-tocopherol] — lower, 16.7%
